Data taken from US20240239812A1, “MACROCYCLIC 2-ALLYLTETRAHYDROFURANS AS INHIBITORS OF MCL-1” (JANSSEN PHARMACEUTICA NV, priority 2021, published 2024).
Like-named read-outs stand apart in the source and are kept apart here.

Experiments:
[1] = test system: MOLP-8 human multiple myeloma cell line; test: Caspase-Glo 3/7 apoptosis induction assay in MOLP-8 cells; assay type: cell-based; conditions: caspase-3/7 activity, 2 hours at 37° C., averaged over all runs on all batches, read-out: MOLP8 AC50
From the text: MCL-1 is a regulator of apoptosis and is highly over-expressed in tumor cells that escape cell death. The assay evaluates the cellular potency of small-molecule compounds targeting regulators of the apoptosis pathway, primarily MCL-1, Bfl-1, Bcl-2, and other proteins of the Bcl-2 family. Protein-protein inhibitors disrupting the interaction of anti-apoptotic regulators with BH3-domain proteins initiate apoptosis.
The Caspase-Glo® 3/7 Assay is a luminescent assay that measures caspase-3 and -7 activities in purified enzyme preparations or cultures of adherent or suspension cells. The assay provides a proluminescent caspase-3/7 substrate, which contains the tetrapeptide sequence DEVD. This substrate is cleaved to release aminoluciferin, a substrate of luciferase used in the production of light. Addition of the single Caspase-Glo® 3/7 Reagent in an “add-mix-measure” format results in cell lysis, followed by caspase cleavage of the substrate and generation of a “glow-type” luminescent signal.
This assay uses the MOLP-8 human multiple myeloma cell line, which is sensitive to MCL-1 inhibition.
Cell cultures were maintained between 0.2 and 2.0×10^6 cells/mL. The cells were harvested by collection in 50 mL conical tubes. The cells were then pelleted at 500 g for 5 mins before removing supernatant and resuspension in fresh pre-warmed culture medium. The cells were counted and diluted as needed.
The assay reagent was prepared by transferring the buffer solution to the substrate vial and mixing. The solution may be stored for up to 1 week at 4° C. with negligible loss of signal.
Compounds were delivered in assay-ready plates (Proxiplate) and stored at −20° C.
Assays always include 1 reference compound plate containing reference compounds. The plates were spotted with 40 nL of compounds (0.5% DMSO final in cells; serial dilution; 30 μM highest conc. 1/3 dilution, 10 doses, duplicates). The compounds were used at room temperature and 4 μL of pre-warmed media was added to all wells except column 2 and 23. The negative control was prepared by adding 1% DMSO in media. The positive control was prepared by adding the appropriate positive control compound in final concentration of 60 μM in media. The plate was prepared by adding 4 μL negative control to column 23, 4 μL positive control to column 2, and 4 μL cell suspension to all wells in the plate. The plate with cells was then incubated at 37° C. for 2 hours. The assay signal reagent is the Caspase-Glo solution described above, and 8 μL was added to all wells. The plates were then sealed and measured after 30 minutes.
The activity of a test compound was calculated as percent change in apoptosis induction as follows: […]

[2] = molecular target: Myeloid Cell Leukemia 1 (Mcl-1) (Homo sapiens (Human), UniProt Q07820); test: Terbium labeled Mcl-1 HTRF binding assay, displacement of Cy5-labeled BIM BH3 peptide; conditions: 25 pM Tb-Mcl-1, 8 nM Cy5 Bim peptide, 60 minutes at room temperature, read-out: Tb-MCL1 Ki
Procedure: Terbium labeled Myeloid Cell Leukemia 1 (Mcl-1) homogeneous time-resolved fluorescence (HTRF) binding assay utilizing the BIM BH3 peptide (H2N—(C/Cy5Mal) WIAQELRRIGDEFN-OH) as the binding partner for Mcl-1.
This assay evaluated inhibition of the BH3 domain: Mcl-1 interaction by measuring the displacement of Cy5-labeled BIM BH3 peptide (H2N—(C/Cy5Mal) WIAQELRRIGDEFN-OH) in the HTRF assay format.
The following assay and stock buffers were prepared for use in the assay: (a) Stock buffer: 10 mM Tris-HCl, pH=7.5+150 mM NaCl, filtered, sterilized, and stored at 4° C.; and (b) 1× assay buffer, where the following ingredients were added fresh to stock buffer: 2 mM dithiothreitol (DTT), 0.0025% Tween-20, 0.1 mg/mL bovine serum albumin (BSA). The 1×Tb-Mcl-1+Cy5 Bim peptide solution was prepared by diluting the protein stock solution using the 1× assay buffer (b) to 25 pM Tb-Mcl-1 and 8 nM Cy5 Bim peptide.
Using the Acoustic ECHO, 100 nL of 100× test compound(s) were dispensed into individual wells of a white 384-well Perkin Elmer Proxiplate, for a final compound concentration of 1× and final DMSO concentration of 1%. Inhibitor control and neutral control (NC, 100 nL of 100% DMSO) were stamped into columns 23 and 24 of assay plate, respectively. Into each well of the plate was then dispensed 10 μL of the 1×Tb-Mcl-1+Cy5 Bim peptide solution. The plate was centrifuged with a cover plate at 1000 rpm for 1 minute, then incubated for 60 minutes at room temperature with plates covered.
The TR-FRET signal was read on an BMG PHERAStar FSX MicroPlate Reader at room temperature using the HTRF optic module (HTRF: excitation: 337 nm, light source: laser, emission A: 665 nm, emission B: 620 nm, integration start: 60 μs, integration time: 400 μs).
The BMG PHERAStar FSX MicroPlate Reader was used to measure fluorescence intensity at two emission wavelengths—665 nm and 620 nm—and report relative fluorescence units (RFU) for both emissions, as well as a ratio of the emissions (665 nm/620 nm)*10,000. The RFU values were normalized to percent inhibition as follows:
% inhibition(((NC−IC)−(compound−IC))/(NC−IC))*100
where IC (inhibitor control, low signal)=mean signal of 1× Tb-MCl-1+Cy5 Bim peptide+inhibitor control or 100% inhibition of Mcl-1; NC (neutral control, high signal)=mean signal 1×Tb-MCl-1+Cy5 Bim peptide with DMSO only or 0% inhibition
An 11-point dose response curve was generated to determine IC50 values (using GenData) based on the following equation:
where Y=% inhibition in the presence of X inhibitor concentration; Top=100% inhibition derived from the IC (mean signal of Mcl-1+inhibitor control); Bottom=0% inhibition derived from the NC (mean signal of Mcl-1+DMSO); Hillslope=Hill coefficient; and IC50=concentration of compound with 50% inhibition in relation to top/neutral control (NC).
Representative compounds of the present invention were tested according to the procedure as described above, with results as listed in the Table below (n.d. means not determined).

Myeloid Cell Leukemia 1 (Mcl-1), sequence (Q07820 whole entry): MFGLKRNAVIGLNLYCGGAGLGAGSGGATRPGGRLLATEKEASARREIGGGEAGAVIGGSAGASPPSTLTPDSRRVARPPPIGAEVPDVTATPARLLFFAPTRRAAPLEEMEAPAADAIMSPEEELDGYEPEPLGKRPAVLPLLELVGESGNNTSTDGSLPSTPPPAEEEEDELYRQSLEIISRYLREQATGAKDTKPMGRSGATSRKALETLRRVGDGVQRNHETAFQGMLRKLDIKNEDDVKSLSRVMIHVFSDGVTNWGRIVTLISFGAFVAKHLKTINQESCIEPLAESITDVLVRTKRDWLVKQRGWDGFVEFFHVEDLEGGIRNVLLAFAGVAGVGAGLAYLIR

COc1nn(C)cc1C(=O)NS1(=O)=NC(=O)c2ccc3c(c2)N(C[C@@H]2CCO[C@H]2C(OC)/C=C/C[C@H](C)C1)C[C@@]1(CCCc2cc(Cl)ccc21)CO3 (single isomer, unassigned) [Compound 8]
AC50 [1]: 34 nM | Ki [2]: 0.0231 nM

COc1nn(C)cc1C(=O)NS1(=O)=NC(=O)c2ccc3c(c2)N(C[C@@H]2CCO[C@H]2C(OC)/C=C/C[C@H](C)C1)C[C@@]1(CCCc2cc(Cl)ccc21)CO3 (single isomer, unassigned) [Compound 9]
AC50 [1]: 119 nM | Ki [2]: 0.05 nM

C[C@@H]1[C@@H](C)C/C=C/C(CO)[C@@H]2OCC[C@H]2CN2C[C@@]3(CCCc4cc(Cl)ccc43)COc3ccc(cc32)C(=O)NS1(=O)=O (single isomer, unassigned) [Compound 14]
AC50 [1]: 1250 nM | Ki [2]: 0.521 nM

COc1nn(C)cc1C(=O)NS1(=O)=NC(=O)c2ccc3c(c2)N(C[C@@H]2CCO[C@H]2C(CN2CCN4CCOC[C@@H]4C2)(OC)/C(F)=C/C[C@H](C)C1)C[C@@]1(CCCc2cc(Cl)ccc21)CO3 (single isomer, unassigned) [Compound 29]
AC50 [1]: 702 nM | Ki [2]: 0.17 nM

CO[C@@H]1/C(F)=C/C[C@H](C)[C@@H](C)S(=O)(=O)NC(=O)c2ccc3c(c2)N(C[C@@H]2CCO[C@H]21)C[C@@]1(CCCc2cc(Cl)ccc21)CO3 [Compound 2]
AC50 ([1]; Homo sapiens, MOLP-8, 2 h): 1120 nM | Ki [2]: 1.13 nM

CO[C@H]1/C(F)=C/C[C@H](C)[C@@H](C)S(=O)(=O)NC(=O)c2ccc3c(c2)N(C[C@@H]2CCO[C@H]21)C[C@@]1(CCCc2cc(Cl)ccc21)CO3 [Compound 1]
AC50 ([1]; Homo sapiens, MOLP-8, 2 h): 191 nM | Ki [2]: 0.218 nM

C[C@@H]1[C@@H](C)C/C=C(\F)C(O)(CC(=O)N(C)C)[C@@H]2OCC[C@H]2CN2C[C@@]3(CCCc4cc(Cl)ccc43)COc3ccc(cc32)C(=O)NS1(=O)=O (single isomer, unassigned) [Compound 22]
AC50 [1]: 4830 nM | Ki [2]: 0.981 nM

COCC1/C=C/C[C@H](C)[C@@H](C)S(=O)(=O)NC(=O)c2ccc3c(c2)N(C[C@@H]2CCO[C@@H]12)C[C@@]1(CCCc2cc(Cl)ccc21)CO3 (stereo partly shown) [Compound 17]
AC50 [1]: 2820 nM | Ki [2]: 0.678 nM
